Source: BindingDB's records for doi:10.1021/acs.jmedchem.6b01385 (Medical University of South Carolina, 2016)

Molecular target: Histone deacetylase 3 (Homo sapiens, UniProt O15379)
Assay: Allosteric inhibition of C-terminal His-tagged recombinant human HDAC3 expressed in Sf9 cells pre-incubated for 2 hrs before acetylated lysine-aminomethyl coumarin-BOC addition and measured after 2 hrs by fluorescence based assay

Chain of Histone deacetylase 3 (O15379 whole entry): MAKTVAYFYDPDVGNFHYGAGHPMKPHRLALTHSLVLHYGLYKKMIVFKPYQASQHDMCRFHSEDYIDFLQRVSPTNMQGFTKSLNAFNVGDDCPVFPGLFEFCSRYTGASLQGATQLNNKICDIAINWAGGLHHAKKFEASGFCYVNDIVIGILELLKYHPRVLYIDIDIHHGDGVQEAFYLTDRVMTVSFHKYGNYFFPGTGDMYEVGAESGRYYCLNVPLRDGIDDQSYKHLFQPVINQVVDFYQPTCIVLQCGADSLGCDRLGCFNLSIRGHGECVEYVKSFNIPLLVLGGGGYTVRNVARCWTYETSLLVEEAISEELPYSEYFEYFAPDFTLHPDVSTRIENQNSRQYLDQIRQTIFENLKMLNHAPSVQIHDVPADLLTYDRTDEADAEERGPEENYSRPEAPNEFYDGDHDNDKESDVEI

- IC50: > 10 µM
Compound: CCCCCCCCCCNNC(=O)c1ccc(CNC(=O)c2ccccc2)cc1 [N-(4-(2-decylhydrazine-1-carbonyl)benzyl)benzamide]
